According to patent publication US12084472B2 (Ardelyx, Inc., priority 2015, dated 2024):

These molecules were tested against T1, human TGR5 (Homo sapiens, UniProt Q8TDU6) (assay: Cell-based TGR5 assay (cAMP generation, HTRF)). Settings: HEK293 cells stably transfected with human TGR5; cAMP by HTRF; 30 minutes at 37° C.
T1 construct: expressed in transfected cells; host or cells: HEK293
T1 sequence (Q8TDU6 1-330): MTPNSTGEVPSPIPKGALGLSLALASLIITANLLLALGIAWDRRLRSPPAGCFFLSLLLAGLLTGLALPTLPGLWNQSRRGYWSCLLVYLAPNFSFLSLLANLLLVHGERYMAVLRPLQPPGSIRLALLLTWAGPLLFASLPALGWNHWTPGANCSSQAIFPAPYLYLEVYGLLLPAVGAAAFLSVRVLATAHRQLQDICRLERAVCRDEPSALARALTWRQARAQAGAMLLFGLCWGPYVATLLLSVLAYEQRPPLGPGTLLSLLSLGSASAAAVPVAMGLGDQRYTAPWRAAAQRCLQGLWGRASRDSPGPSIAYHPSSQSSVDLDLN
Method in brief: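 Read-out was HTRF detection of cAMP, converted to concentration via a standard curve and fitted (3-parameter logistic) for pEC50 and maximal response. Agonist stimulation used HEK293 cells stably transfected with human TGR5, incubated 30 min at 37° C in IBMX-containing buffer at 0.05 nM to 10 μM compound.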

pEC50 Human TGR5	Structure (SMILES)
B (B is a pEC50 of 6 to 6.9)	CN(CCCCNC(=O)NCCOCCOCCNC(=O)NCCCCNC(=O)NCCOCCOCCNC(=O)NCCCCN(C)S(=O)(=O)c1ccc(Cl)c(COC2(c3cnccc3-c3ccccc3OC3CC3)CC2)c1)S(=O)(=O)c1ccc(Cl)c(COC2(c3cnccc3-c3ccccc3OC3CC3)CC2)c1 [Compound I-736, 3-(4-[N-methyl[4-chloro-3-([1-[4-(2-cyclopropoxyphenyl)pyridin-3-yl]cyclopropoxy]methyl)benzene]sulfonamido]butyl)-1-[2-(2-[2-[([4-[([2-[2-(2-[[(4-[N-methyl[4-chloro-3-([1-[4-(2-cyclopropoxyphenyl)pyridin-3-yl]cyclopropoxy]methyl)benzene]sulfonamido]butyl)carbamoyl]amino]ethoxy)ethoxy]ethyl]carbamoyl)amino]butyl]carbamoyl)amino]ethoxy]ethoxy)ethyl]urea]

Same assay, conditions: HEK293 cells stably transfected with human TGR5; cAMP by HTRF; 30 minutes at 37° C.; read-out: pEC50 Human TGR5 (converted)

Structure (SMILES)	EC50
Cc1cc(COC2(c3cnccc3-c3ccccc3OC3CC3)CC2)c(Cl)cc1CCCCNC(=O)N[C@H](CCCCN)C(=O)O [Compound I-119, (2R)-6-amino-2-[({4-[5-chloro-4-({1-[4-(2-cyclopropoxyphenyl)pyridin-3-yl]cyclopropoxy}methyl)-2-methylphenyl]butyl}carbamoyl)amino]hexanoic acid]	126 to 1000 nM
O=C(NCCCC1(c2ccc(Cl)c(CNC3(c4cnccc4-c4ccccc4OC4CC4)CC3)c2)CC1)[C@@H](O)[C@@H](O)[C@H](O)[C@@H](O)CO [Compound I-382, (2S,3S,4R,5S)-N-[3-(1-[4-chloro-3-[([1-[4-(2-cyclopropoxyphenyl)pyridin-3-yl]cyclopropyl]amino)methyl]phenyl]cyclopropyl)propyl]-2,3,4,5,6-pentahydroxyhexanamide]	< 100 nM
O=C(NCCCCC[S+]([O-])c1ccc(Cl)c(COC2(c3cnccc3-c3ccccc3OC3CC3)CC2)c1)N[C@@H](CO)[C@@H](O)[C@H](O)[C@H](O)CO (stereo partly drawn) [Compound I-642, 1-{5-[4-chloro-3-({1-[4-(2-cyclopropoxyphenyl)pyridin-3-yl]cyclopropoxy}methyl)benzenesulfinyl]pentyl}-3-[(2S,3R,4S,5R)-1,3,4,5,6-pentahydroxyhexan-2-yl]urea]	< 100 nM
C[C@H](CCCCNC(=O)N[C@@H](CO)[C@@H](O)[C@H](O)[C@H](O)CO)c1ccc(Cl)c(COC2(c3cnccc3-c3ccccc3OC3CC3)CC2)c1 (single isomer, unassigned) [Compound I-264]	< 100 nM
Cc1ccc(C(C)CCCC(=O)N(C)C[C@H](O)[C@@H](O)[C@H](O)[C@H](O)CO)cc1CNC1(c2cnccc2-c2ccccc2OC2CC2)CC1 (stereo partly drawn) [Compound I-352, 5-{3-[({1-[4-(2-cyclopropoxyphenyl)pyridin-3-yl]cyclopropyl}amino)methyl]-4-methylphenyl}-N-methyl-N-[(2S,3R,4R,5R)-2,3,4,5,6-pentahydroxyhexyl]hexanamide]	< 100 nM
Cc1ccc(SCCCCN(CCCS(C)(=O)=O)C(=O)[C@@H](O)[C@@H](O)[C@H](O)[C@@H](O)CO)cc1COC1(c2cnccc2-c2ccccc2OC2CC2)CC1 [Compound I-561, (2S,3S,4R,5S)-N-(4-{[3-({1-[4-(2-cyclopropoxyphenyl)pyridin-3-yl]cyclopropoxy}methyl)-4-methylphenyl]sulfanyl}butyl)-2,3,4,5,6-pentahydroxy-N-(3-methanesulfonylpropyl)hexanamide]	126 to 1000 nM
CCNC(=O)CCN(C[C@H](O)[C@@H](O)[C@H](O)[C@H](O)CO)C(=O)CCCC(C)c1ccc(C)c(CNC2(c3cnccc3-c3ccccc3OC3CC3)CC2)c1 (stereo partly drawn) [Compound I-365, 5-{3-[({1-[4-(2-cyclopropoxyphenyl)pyridin-3-yl]cyclopropyl}amino)methyl]-4-methylphenyl}-N-[2-(ethylcarbamoyl)ethyl]-N-[(2S,3R,4R,5R)-2,3,4,5,6-pentahydroxyhexyl]hexanamide]	126 to 1000 nM
O=C(COCC1CCN(S(=O)(=O)c2ccc(Cl)c(COC3(c4cnccc4-c4ccccc4OC4CC4)CC3)c2)C1)NC[C@H](O)[C@@H](O)[C@H](O)[C@H](O)CO (stereo partly drawn) [Compound I-455, 2-({1-[4-chloro-3-({1-[4-(2-cyclopropoxyphenyl)pyridin-3-yl]cyclopropoxy}methyl)benzenesulfonyl]pyrrolidin-3-yl}methoxy)-N-[(2S,3R,4R,5R)-2,3,4,5,6-pentahydroxyhexyl]acetamide]	< 100 nM
CC(CCCC(=O)N(CCOCCO)C[C@H](O)[C@@H](O)[C@H](O)[C@H](O)CO)c1ccc(Cl)c(CNC2(c3cnccc3-c3ccccc3OC3CC3)CC2)c1 (stereo partly drawn) [Compound I-342, 5-{4-chloro-3-[({1-[4-(2-cyclopropoxyphenyl)pyridin-3-yl]cyclopropyl]amino)methyl]phenyl}-N-[2-(2-hydroxyethoxy)ethyl]-N-[(2S,3R,4R,5R)-2,3,4,5,6-pentahydroxyhexyl]hexanamide]	< 100 nM
O=C(CCCCNS(=O)(=O)c1ccc(Cl)c(COC2(c3cnccc3-c3ccccc3OC3CC3)CC2)c1)NC[C@H](O)[C@@H](O)[C@H](O)[C@H](O)CO [Compound I-433, 5-[4-chloro-3-({1-[4-(2-cyclopropoxyphenyl)pyridin-3-yl]cyclopropoxy}methyl)benzenesulfonamido]-N-[(2S,3R,4R,5R)-2,3,4,5,6-pentahydroxyhexyl]pentanamide]	< 100 nM
CCN(CCCCNC(=O)N[C@@H](CO)[C@@H](O)[C@H](O)[C@H](O)CO)S(=O)(=O)c1ccc(Cl)c(CNC2(c3cnccc3-c3ccccc3OC3CC3)CC2)c1 [Compound I-696, 1-[4-(N-ethyl[4-chloro-3-[([1-[4-(2-cyclopropoxyphenyl)pyridin-3-yl]cyclopropyl]amino)methyl]benzene]sulfonamido)butyl]-3-[(2S,3R,4S,5R)-1,3,4,5,6-pentahydroxyhexan-2-yl]urea]	< 100 nM

Continued, values first:

EC50	Structure (SMILES)
126 to 1000 nM	CS(=O)(=O)CCN(C[C@H](O)[C@@H](O)[C@H](O)[C@H](O)CO)C(=O)CCCSc1ccc(Cl)c(COC2(c3cnccc3-c3ccccc3OC3CC3)CC2)c1 [Compound I-665, 4-{[4-chloro-3-({1-[4-(2-cyclopropoxyphenyl)pyridin-3-yl]cyclopropoxy}methyl)phenyl]sulfanyl}-N-(2-methanesulfonylethyl)-N-[(2S,3R,4R,5R)-2,3,4,5,6-pentahydroxyhexyl]butanamide]
126 to 1000 nM	CS(=O)(=O)NCCCN(CCCSc1ccc(Cl)c(COC2(c3cnccc3-c3ccccc3OC3CC3)CC2)c1)C(=O)[C@@H](O)[C@@H](O)[C@H](O)[C@@H](O)CO [Compound I-592, (2S,3S,4R,5S)-N-(3-{[4-chloro-3-({1-[4-(2-cyclopropoxyphenyl)pyridin-3-yl]cyclopropoxy}methyl)phenyl]sulfanyl}propyl)-2,3,4,5,6-pentahydroxy-N-(3-methanesulfonamidopropyl) hexanamide]
126 to 1000 nM	O=C(CCCCc1cc(Cl)c(CNC2(c3cnccc3-c3ccccc3OC3CC3)CC2)cc1Cl)NC[C@H](O)[C@@H](O)[C@H](O)[C@H](O)CO [Compound I-62, 5-[2,5-dichloro-4-[([1-[4-(2-cyclopropoxyphenyl)pyridin-3-yl]cyclopropyl]amino)methyl]phenyl]-N-[(2S,3R,4R,5R)-2,3,4,5,6-pentahydroxyhexyl]pentanamide]
< 100 nM	CS(=O)(=O)NCCN(CCCCSc1ccc(Cl)c(COC2(c3cnccc3-c3ccccc3OC3CC3)CC2)c1)C(=O)[C@@H](O)[C@@H](O)[C@H](O)[C@@H](O)CO [Compound I-575, (2S,3S,4R,5S)-N-(4-{[4-chloro-3-({1-[4-(2-cyclopropoxyphenyl)pyridin-3-yl]cyclopropoxy}methyl)phenyl]sulfanyl}butyl)-2,3,4,5,6-pentahydroxy-N-(2-methanesulfonamidoethyl) hexanamide]
< 100 nM	CN(C[C@H](O)[C@@H](O)[C@H](O)[C@H](O)CO)C(=O)CCCCc1cc(Cl)c(COC2(c3cnccc3-c3ccccc3OC3COC3)CC2)cc1Cl [Compound I-192, 5-{2,5-dichloro-4-[(1-{4-[2-(oxetan-3-yloxy)phenyl]pyridin-3-yl}cyclopropoxy)methyl]phenyl}-N-methyl-N-[(2S,3R,4R,5R)-2,3,4,5,6-pentahydroxyhexyl]pentanamide]
< 100 nM	CN(C)CC(=O)N(CCCCc1cc(Cl)c(COC2(c3cnccc3-c3ccccc3OC3CC3)CC2)cc1Cl)C[C@H](O)[C@@H](O)[C@H](O)[C@H](O)CO [Compound I-203, N-{4-[2,5-dichloro-4-({1-[4-(2-cyclopropoxyphenyl)pyridin-3-yl]cyclopropoxy}methyl)phenyl]butyl}-2-(dimethylamino)-N-[(2S,3R,4R,5R)-2,3,4,5,6-pentahydroxyhexyl]acetamide]
< 100 nM	Cc1ccc(CCCCC(=O)N(C)C[C@H](O)[C@@H](O)[C@H](O)[C@H](O)CO)cc1COC1(c2cnccc2-c2ccccc2OC2CC2)CC1 (stereo in doubt) [Compound I-236, 5-[3-({1-[4-(2-cyclopropoxyphenyl)pyridin-3-yl]cyclopropoxy}methyl)-4-methylphenyl]-N-methyl-N-[(2S,3R,4R,5R)-2,3,4,5,6-pentahydroxyhexyl]pentanamide]
< 100 nM	O=C(NC[C@H](O)[C@@H](O)[C@H](O)[C@H](O)CO)NC1CCN(C(=O)CCCCc2cc(Cl)c(COC3(c4cnccc4-c4ccccc4OC4CC4)CC3)cc2Cl)CC1 (stereo in doubt) [Compound I-158, 1-(1-{5-[2,5-dichloro-4-({1-[4-(2-cyclopropoxyphenyl)pyridin-3-yl]cyclopropoxy}methyl)phenyl]pentanoyl}piperidin-4-yl)-3-[(2S,3R,4R,5R)-2,3,4,5,6-pentahydroxyhexyl]urea]
